Test results: the NIST ThermoML archive (doi:10.1021/acs.jced.6b00008)
± gives the expanded uncertainty stated by the source.

Tests used:
[1] = Molar enthalpy of transition or fusion; settings: Crystal; DSC
[2] = Crystal; DTA

Molar enthalpy of transition or fusion [1]: 3.92 ± 0.335 kcal/mol | Normal melting temperature [2]: 160.96 ± 3.4 °C
Compound: O=C(/C=C/c1ccc(O)c(O)c1)O[C@H](Cc1ccc(O)c(O)c1)C(=O)O [rosmarinic acid]
